According to a melting point compilation (Tetko et al.; mined from patent text by program, amines drawn as free bases though some values may be those of a salt):

Structure (SMILES)	melting point
CCN(c1ccc(F)cc1[N+](=O)[O-])S(=O)(=O)c1ccc(C)cc1	93 to 94.5 °C
CN1CCN(c2ccc([N+](=O)[O-])c(C(=O)O)c2)CC1	212 °C
CN(Cc1ccc(=O)n(Cc2ccc(Cl)cc2)c1)c1ccccc1	106 °C
CCNc1ncc(S(=O)(=O)NCC)cc1[N+](=O)[O-]	153 to 155 °C
C=C1C(=O)c2ccccc2OC1c1ccc(Cl)cc1Cl (centres undefined)	86 to 87 °C
CCCc1nc2c(N)nc3cc(OCc4ccc(Cl)c(Cl)c4)ccc3c2n1CC(C)C	183 to 184 °C
CN(C)CCc1cccc(OCCN2C(=O)c3ccccc3C2=O)c1	84 to 85 °C
Oc1ccc(Cn2ccnc2)c2cccnc12	182 °C
COc1cccc(C(=CC2CCN(CCCCCCCCc3cccnc3)CC2)c2cccc(OC)c2)c1	112 to 115 °C
COC(OC)/C(=C/c1ccc(Cl)cc1Cl)c1ccc(Cl)cc1	87 to 90 °C
Cc1sc2c(Br)c3ccccc3c(-c3cc(Br)c(OC(C)C(=O)O)c(Br)c3)c2c1C (centres undefined)	224 to 225 °C
Oc1ccc2c(c1)COc1c-2cc2ccc(O)cc2c1-c1cc(F)cc(F)c1	238 to 240 °C
O=Cc1cc2n(c1)CCc1ccccc1C2=O	135 to 136 °C
CN1CCC(N2CCN(c3cccc(-c4cn[nH]c4N)c3)CC2)CC1	213 to 220 °C
CC(C)c1nc(CN(C)C(=O)NC(C(=O)NC(Cc2ccccc2)CC(O)C(Cc2ccccc2)NC(=O)OCc2ccno2)C(C)C)cs1 (centres undefined)	60 to 62 °C
O=C1CCC(c2ccc(NC3=NCCO3)cc2)=NN1	332 to 333 °C
O=C(c1ccccc1)c1ccc[nH]1	76 to 77 °C
CC(C)S(=O)(=O)NCc1ccc2ccn(C3CCN(CCc4ccc(F)cc4)CC3)c2c1	90 to 92 °C
CC(CC(=O)O)(c1ccc(OCc2ccc3ccccc3n2)cc1)c1ccc(OCc2ccc3ccccc3n2)cc1	94 to 96 °C
Cc1ccc(-c2ncncc2C#N)cc1	127 to 128 °C
CC(C)NC(=O)CN1CCN(CCc2ccc(-c3cccc(N)n3)cc2)CC1	163 to 165 °C
O=C(Nc1cc(-c2cccc(C(F)(F)F)c2)no1)c1c(F)cccc1F	123 to 126 °C
COc1cccc(Cc2nc3n(-c4c(Cl)cc(Cl)cc4Cl)[nH]c(C(C)C)c-3c(=O)n2)c1	204 to 205 °C
Cc1ccc(Cl)c(Nc2ccccc2CON=CC(=O)O)c1Cl	185 to 187 °C
CCCc1c(C(=O)C(C)C)c2ccc(C(N)=O)cc2n1C(=O)c1ccccc1Cl	125 to 126 °C

Structure (SMILES)	melting point
CCOC(=O)CSc1cc(NS(=O)(=O)c2cccs2)c2ccccc2c1O	116 to 118 °C
O=c1oc(-c2cccc(OCCc3ccccc3)c2)cc(O)c1SCCc1ccccc1	104 to 106 °C
CC(=O)C(=O)N[C@H](CO[N+](=O)[O-])Cc1ccccc1	72 to 75 °C
Cc1cc(C)n(C)c(=O)c1C#N	202 to 205 °C
CCCCCCCCCCCCCCNC(=O)Nc1sc(C(=O)O)c(C)c1C(=O)OC(C)(C)C	176 to 178 °C
NC(=O)c1c(F)ccc(OCc2nc3ccc(OC(F)(F)F)cc3s2)c1F	174 to 175 °C
Cc1cc(-c2nnn(C)n2)cc(C)c1OCCCCC1Cc2cccnc2N1C (centres undefined)	54 to 57 °C
CCC(Oc1ccc(C)c(C)c1)C(=O)OC1CC(O)C=C2C=CC(C)C(CCC3CC(O)CC(=O)O3)C21 (mixture of isomers)	137 to 139 °C
CCn1c(=O)c2c(nc(/C=C/c3ccc(OC)cc3OC)n2C)n(CC)c1=O	196 to 197 °C
CC(=O)OCCc1ccc(NC(=O)CCCCl)cc1	83 °C
COc1ccc(CSc2nc3cnccc3[nH]2)cc1	160 to 161 °C
Cc1nc(-c2nc(-c3ccc(Cl)cc3)c(CCCCCO)o2)c[nH]1	94 to 95 °C
CC(C)(CN)c1ccc2nc(-c3ccccc3)[nH]c2c1	185 to 187 °C
Cc1oc(-c2ccco2)nc1COc1ccc(COc2nn(Cc3ccccc3)cc2C=O)cn1	104 to 105 °C
CCCCCNC(=O)[C@@H]1CCCN1C(=O)[C@H](C)NC(=O)OCc1ccccc1	102 to 104 °C
Cc1ccnc2c1nc(CO)n2C	> 300 °C
C=C1C(=O)c2ccccc2OC1(c1ccccc1)c1ccccc1	165 to 167 °C
O=P(O)(CO)c1ccccc1	134 to 136 °C
O=S(=O)(NCc1ccnc2ccccc12)c1ccc(-c2ccc(Cl)cc2)s1	185 to 186 °C
NC(=O)N1c2ccccc2C(Cl)=C(Cl)c2ccccc21	265 to 270 °C
CCn1cc(C(=O)O)c(=O)c2cc3oc(C(=O)O)cc3nc21	> 300 °C
COc1c(C)c(N2CCN(c3ccc(OC(F)F)cc3)CC2)c(C)c2c1OC(C)(C)C2	151 to 152 °C
COC(=O)C(=CC1C(C(=O)O)C1(C)C)OC (centres undefined)	78 °C
Cc1ccc(S(=O)(=O)N(C)c2ncc(Cl)cc2[N+](=O)[O-])cc1	141 to 143 °C
